Reference: patent US4183848A, “Analgesic polypeptide” (American Home Products Corporation, priority 1977, dated 1980)
Where a SMILES comes first, the peptide text is derived from it. [ ]: non-standard residue; d: D form. Aib = CC(C)(N)C(=O)O

Experiments:
[1] = system: rat tail flick test; test: rat tail flick test (method of D-Amour and Smith), analgesic activity; assay type: in vivo
Description: The representative polypeptide of this invention Tyr-D-Ala-Gly-Phe-2-MeAla-NH2, gave the following results in the reference standard rat tail flick test: […]

[2] = system: mouse vas deferens; conditions: cited from earlier work
[3] = system: rats; conditions: injection in the brain ventricle in rats; fully reversible by naloxone; cited from earlier work
[4] = system: guinea pig ileum; conditions: cited from earlier work
[5] = system: opiate receptor; conditions: brain homogenates; cited from earlier work
[6] = peripheral administration; cited from earlier work
[7] = intracerebroventricular administration; cited from earlier work

## CC(=O)O.C[C@@H](NC(=O)[C@@H](N)Cc1ccc(O)cc1)C(=O)NCC(=O)N[C@@H](Cc1ccccc1)C(=O)NC(C)(C)C(N)=O [Tyr-D-Ala-Gly-Phe-2-MeAla-NH2, L-Tyrosyl-D-Alanylglycyl-L-Phenylalanyl-2-Methylalaninamide acetate] (H-Y[dA]GF[Aib]-NH2)
[1]; intravenous 1.0 milligram/kilogram, 15 minutes after administration
  No. showing analgesia/No. tested: 6/6
[1]; intravenous 1.0 milligram/kilogram, 30 minutes after administration
  No. showing analgesia/No. tested: 4/6
[1]; intravenous 1.0 milligram/kilogram, 60 minutes after administration
  No. showing analgesia/No. tested: 3/6
[1]; intravenous 2.5 milligram/kilogram, 15 minutes after administration
  No. showing analgesia/No. tested: 5/6
[1]; intravenous 2.5 milligram/kilogram, 30 minutes after administration
  No. showing analgesia/No. tested: 5/6
[1]; intravenous 2.5 milligram/kilogram, 60 minutes after administration
  No. showing analgesia/No. tested: 2/6
[1]; intravenous 5.0 milligram/kilogram, 15 minutes after administration
  No. showing analgesia/No. tested: 5/5
[1]; intravenous 5.0 milligram/kilogram, 30 minutes after administration
  No. showing analgesia/No. tested: 4/5
[1]; intravenous 5.0 milligram/kilogram, 60 minutes after administration
  No. showing analgesia/No. tested: 2/5
[1]; intravenous .5 milligram/kilogram, 15 minutes after administration
  No. showing analgesia/No. tested: 0/6
[1]; intravenous .5 milligram/kilogram, 30 minutes after administration
  No. showing analgesia/No. tested: 1/6
[1]; intravenous .5 milligram/kilogram, 60 minutes after administration
  No. showing analgesia/No. tested: 1/6
[1]; subcutaneous 5.0 milligram/kilogram, 30 minutes after administration
  No. showing analgesia/No. tested: 3/6
[1]; subcutaneous 5.0 milligram/kilogram, 60 minutes after administration
  No. showing analgesia/No. tested: 1/6
[1]; subcutaneous 5.0 milligram/kilogram, 90 minutes after administration
  No. showing analgesia/No. tested: 2/6
[1]; subcutaneous 5.0 milligram/kilogram, 120 minutes after administration
  No. showing analgesia/No. tested: 0/6
[1]; subcutaneous 10.0 milligram/kilogram, 30 minutes after administration
  No. showing analgesia/No. tested: 6/6
[1]; subcutaneous 10.0 milligram/kilogram, 60 minutes after administration
  No. showing analgesia/No. tested: 5/6
[1]; subcutaneous 10.0 milligram/kilogram, 90 minutes after administration
  No. showing analgesia/No. tested: 2/6
[1]; subcutaneous 10.0 milligram/kilogram, 120 minutes after administration
  No. showing analgesia/No. tested: 1/6

## H-Tyr-Gly-Gly-Phe-Leu-OH [leucine-enkephalin]
[2]
  block of electrically evoked contractions: mimic the ability of morphine to block electrically evoked contractions
[3]
  analgesia: profound analgesia
[4]
  block of electrically evoked contractions: mimic the ability of morphine to block electrically evoked contractions
[5]
  inhibition of stereospecific receptor binding of 3H-naloxone: inhibit
[6]
  activity when administered peripherally: inactive

## H-Tyr-Gly-Gly-Phe-Met-OH [methionine-enkephalin]
[2]
  block of electrically evoked contractions: mimic the ability of morphine to block electrically evoked contractions
[3]
  analgesia: profound analgesia
[4]
  block of electrically evoked contractions: mimic the ability of morphine to block electrically evoked contractions
[5]
  inhibition of stereospecific receptor binding of 3H-naloxone: inhibit
[6]
  activity when administered peripherally: inactive

## Tyr-D-Ala-Gly-Phe-D-Leu
[7]
  activity when administered intracerebroventricularly: activity
